Measured values reported in ChEMBL document CHEMBL4842368, “Berotralstat (BCX7353): Structure-Guided Design of a Potent, Selective, and Oral Plasma Kallikrein Inhibitor to Prevent Attacks of Hereditary Angioedema (HAE)” (J Med Chem, 2021).
pIC50: −log10 of the molar value. In brackets after ≈: the same amount, converted by molar mass.

What was measured:
Plasma kallikrein [1] = biological target: T1, Plasma kallikrein (Homo sapiens, UniProt P03952); assay: Inhibition of purified human plasma kallikrein using H-D-Pro-Phe-Arg-pNA.2HCl as substrate measured after 3 mins by microplate reader analysis
[2] = AUC(0 to 96 hrs) in rat at 30 mg/kg, po; assay type: ADME, organism-based; design: time < 96 hr, route oral, dose 30 mg/kg; settings: in vivo
[3] = Cmax in rat at 3 mg/kg, iv; assay type: ADME, organism-based; design: route intravenous, dose 3 mg/kg; settings: in vivo
[4] = Clearance in monkey at 25 mg/kg, po; assay type: ADME, organism-based, Macaca mulatta; settings: rhesus monkey, in vivo
[5] = Oral bioavailability in rat at 30 mg/kg; assay type: ADME, organism-based; settings: in vivo
[6] = AUC(0 to 24 hrs) in monkey at 2.5 mg/kg, iv; assay type: ADME, organism-based, Macaca mulatta; design: time < 24 hr, route intravenous, dose 2.5 mg/kg; settings: rhesus monkey, in vivo
[7] = Clearance in rat at 3 mg/kg, iv; assay type: ADME, organism-based; settings: in vivo
Prothrombin = Prothrombin (Homo sapiens, UniProt P00734); assay: Inhibition of human thrombin using Nalpha-Benzoyl-Phe-Val-Arg p-nitroaniline as substrate measured after 5 mins by plate reader analysis
Coagulation factor X = Coagulation factor X (Homo sapiens, UniProt P00742); assay: Inhibition of human factor 10a using N-a-Benzyloxycarbonyl-D-arginyl-L-glycyl-L-arginine-pnitroaniline-dihydrochloride as substrate measured after 5 mins by plate reader analysis
Trypsin = Trypsin (Homo sapiens, UniProt P07477+P07478+P35030); assay: Inhibition of human trypsin using Nalpha-Benzoyl-L-Arginine p-nitroaniline as substrate measured after 5 mins by plate reader analysis; assay type: protein assay
[8] = Tmax in rat at 30 mg/kg, po; assay type: ADME, organism-based; settings: in vivo
[9] = AUC(0 to 24 hrs) in monkey at 25 mg/kg, po; assay type: ADME, organism-based, Macaca mulatta; design: time < 24 hr, route oral, dose 25 mg/kg; settings: rhesus monkey, in vivo
[10] = AUC(0 to 24 hrs) in rat at 3 mg/kg, iv; assay type: ADME, organism-based; design: time < 24 hr, route intravenous, dose 3 mg/kg; settings: in vivo
[11] = AUC(0 to 24 hrs) in rat at 30 mg/kg, po; assay type: ADME, organism-based; design: time < 24 hr, route oral, dose 30 mg/kg; settings: in vivo
[12] = Cmax in rat at 10 mg/kg, po; assay type: ADME, organism-based; design: route oral, dose 10 mg/kg; settings: in vivo
Plasminogen = Plasminogen (Homo sapiens, UniProt P00747); assay: Inhibition of human plasmin using Z-Lys-SBzl as substrate measured immediately by plate reader analysis
[13] = Half life in monkey at 25 mg/kg, po; assay type: ADME, organism-based, Macaca mulatta; settings: rhesus monkey, in vivo
[14] = Tmax in monkey at 25 mg/kg, po; assay type: ADME, organism-based, Macaca mulatta; settings: rhesus monkey, in vivo
[15] = Half life in monkey at 2.5 mg/kg, iv; assay type: ADME, organism-based, Macaca mulatta; settings: rhesus monkey, in vivo
[16] = Half life in rat at 3 mg/kg, iv; assay type: ADME, organism-based; settings: in vivo
[17] = Solubility of compound at pH 4; assay type: physicochemical; settings: buffer
[18] = Solubility of compound at pH 7; assay type: physicochemical; settings: buffer
[19] = Cmax in rat at 30 mg/kg, po; assay type: ADME, organism-based; design: route oral, dose 30 mg/kg; settings: in vivo
[20] = Clearance in rat at 30 mg/kg, po; assay type: ADME, organism-based; settings: in vivo
[21] = Cmax in monkey at 2.5 mg/kg, iv; assay type: ADME, organism-based, Macaca mulatta; design: route intravenous, dose 2.5 mg/kg; settings: rhesus monkey, in vivo
[22] = Half life in rat at 30 mg/kg, po; assay type: ADME, organism-based; settings: in vivo
[23] = Cmax in monkey at 25 mg/kg, po; assay type: ADME, organism-based, Macaca mulatta; design: route oral, dose 25 mg/kg; settings: rhesus monkey, in vivo
[24] = biological target: Tissue-type plasminogen activator (Homo sapiens, UniProt P00750); assay: Inhibition of recombinant human tPA using H-D-Isoleucyl-L-prolyl-L-arginine p-nitroaniline dihydrochloride as substrate measured after 5 mins by plate reader analysis
[25] = biological target: T2, Complement C1s subcomponent (Homo sapiens, UniProt P09871); assay: Inhibition of human C1s using […] as substrate measured immediately by plate reader analysis
T2 sequence (P09871 whole entry): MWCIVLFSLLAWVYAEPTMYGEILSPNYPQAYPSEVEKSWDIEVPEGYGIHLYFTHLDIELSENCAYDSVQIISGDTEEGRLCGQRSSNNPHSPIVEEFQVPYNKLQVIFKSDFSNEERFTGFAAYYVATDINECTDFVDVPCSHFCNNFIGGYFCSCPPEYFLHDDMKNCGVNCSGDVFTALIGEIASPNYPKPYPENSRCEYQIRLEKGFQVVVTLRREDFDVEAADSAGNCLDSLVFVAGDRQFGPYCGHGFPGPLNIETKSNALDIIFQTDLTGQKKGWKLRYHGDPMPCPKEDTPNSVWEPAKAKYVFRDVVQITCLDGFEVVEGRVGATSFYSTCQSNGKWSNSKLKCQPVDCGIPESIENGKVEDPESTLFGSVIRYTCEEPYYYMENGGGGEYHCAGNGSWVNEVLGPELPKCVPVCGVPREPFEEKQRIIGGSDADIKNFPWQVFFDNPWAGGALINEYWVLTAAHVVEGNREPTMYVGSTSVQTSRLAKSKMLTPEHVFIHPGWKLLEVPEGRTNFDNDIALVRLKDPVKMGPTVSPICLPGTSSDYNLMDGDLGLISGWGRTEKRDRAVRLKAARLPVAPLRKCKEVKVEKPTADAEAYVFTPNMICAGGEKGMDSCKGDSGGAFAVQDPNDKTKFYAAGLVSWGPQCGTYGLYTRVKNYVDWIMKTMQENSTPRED

[26] = Clearance in monkey at 2.5 mg/kg, iv; assay type: ADME, organism-based, Macaca mulatta; settings: rhesus monkey, in vivo
[27] = AUC in rat at 10 mg/kg, po after 24 hrs; assay type: ADME, organism-based; design: route oral, time 24 hrs, dose 10 mg/kg; settings: in vivo
[28] = Oral bioavailability in monkey at 25 mg/kg; assay type: ADME, organism-based, Macaca mulatta; settings: rhesus monkey, in vivo
Coagulation factor XII = biological target: T3, Coagulation factor XII (Homo sapiens, UniProt P00748); assay: Inhibition of human factor 12a using D-prolyl-L-phenylalanyl-L-arginine-p-nitroaniline as substrate measured after 5 mins by plate reader analysis
T3 sequence (P00748 whole entry): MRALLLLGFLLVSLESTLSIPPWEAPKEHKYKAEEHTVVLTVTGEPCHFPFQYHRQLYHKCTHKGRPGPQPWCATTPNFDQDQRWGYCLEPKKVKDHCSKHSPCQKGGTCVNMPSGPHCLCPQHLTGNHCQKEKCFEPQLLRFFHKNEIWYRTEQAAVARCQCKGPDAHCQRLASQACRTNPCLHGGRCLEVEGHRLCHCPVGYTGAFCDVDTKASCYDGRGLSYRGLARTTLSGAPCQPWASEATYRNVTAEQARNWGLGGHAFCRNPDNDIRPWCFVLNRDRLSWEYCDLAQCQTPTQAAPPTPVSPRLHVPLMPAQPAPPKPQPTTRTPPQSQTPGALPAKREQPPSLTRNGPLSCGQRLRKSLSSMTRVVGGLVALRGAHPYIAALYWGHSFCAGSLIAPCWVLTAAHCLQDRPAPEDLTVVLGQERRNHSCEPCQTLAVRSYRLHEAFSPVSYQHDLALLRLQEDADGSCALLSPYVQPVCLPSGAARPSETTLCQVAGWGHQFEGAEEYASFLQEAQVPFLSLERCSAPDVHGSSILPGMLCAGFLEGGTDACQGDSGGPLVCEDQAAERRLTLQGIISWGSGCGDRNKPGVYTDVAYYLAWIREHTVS

[29] = AUC(0 to 96 hrs) in rat at 3 mg/kg, iv; assay type: ADME, organism-based; design: time < 96 hr, route intravenous, dose 3 mg/kg; settings: in vivo
[30] = AUC in rat at 5 mg/kg, po after 12 hrs; assay type: ADME, organism-based; design: route oral, time 12 hrs, dose 5 mg/kg; settings: in vivo
[31] = Cmax in rat at 5 mg/kg, po; assay type: ADME, organism-based; design: route oral, dose 5 mg/kg; settings: in vivo
Plasma kallikrein [32] = biological target: T1, Plasma kallikrein; assay: Inhibition of endogenous human plasma kallikrein using Z-Phe-Arg-AMC.HCl as substrate measured after 5 mins by microplate reader analysis
[33] = AUC in rat at 5 mg/kg, po after 24 hrs; assay type: ADME, organism-based; design: route oral, dose 5 mg/kg, time 24 hrs; settings: in vivo
[34] = Plasma concentration in rat at 5 mg/kg, po after 24 hrs; assay type: ADME, organism-based
[35] = Plasma concentration in rat at 5 mg/kg, po after 12 hrs; assay type: ADME, organism-based

T1 sequence (P03952 20-390 limits assumed): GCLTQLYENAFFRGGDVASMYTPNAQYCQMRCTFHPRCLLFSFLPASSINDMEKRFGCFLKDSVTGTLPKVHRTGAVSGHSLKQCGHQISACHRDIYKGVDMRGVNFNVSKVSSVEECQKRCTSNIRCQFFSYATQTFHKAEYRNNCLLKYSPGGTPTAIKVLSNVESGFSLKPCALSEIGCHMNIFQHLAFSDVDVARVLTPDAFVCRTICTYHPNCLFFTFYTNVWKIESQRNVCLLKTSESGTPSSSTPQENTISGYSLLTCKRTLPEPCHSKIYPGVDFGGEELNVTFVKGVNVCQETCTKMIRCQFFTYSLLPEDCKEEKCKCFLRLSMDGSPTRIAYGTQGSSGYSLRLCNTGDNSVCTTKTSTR
T1 sequence (P03952 391-638 limits assumed): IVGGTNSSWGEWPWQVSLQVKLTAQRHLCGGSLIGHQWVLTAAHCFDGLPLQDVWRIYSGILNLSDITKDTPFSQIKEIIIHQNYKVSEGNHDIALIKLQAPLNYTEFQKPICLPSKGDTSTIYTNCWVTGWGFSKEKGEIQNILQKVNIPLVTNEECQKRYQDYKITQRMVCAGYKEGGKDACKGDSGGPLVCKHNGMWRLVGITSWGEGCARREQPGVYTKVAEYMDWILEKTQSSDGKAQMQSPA
Chain of Coagulation factor X (P00742 41-179 limits assumed): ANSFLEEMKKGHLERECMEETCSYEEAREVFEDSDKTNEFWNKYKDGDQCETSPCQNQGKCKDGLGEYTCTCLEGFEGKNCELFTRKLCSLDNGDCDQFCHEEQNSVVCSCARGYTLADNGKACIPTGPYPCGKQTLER
Chain of Coagulation factor X (P00742 235-488 limits assumed): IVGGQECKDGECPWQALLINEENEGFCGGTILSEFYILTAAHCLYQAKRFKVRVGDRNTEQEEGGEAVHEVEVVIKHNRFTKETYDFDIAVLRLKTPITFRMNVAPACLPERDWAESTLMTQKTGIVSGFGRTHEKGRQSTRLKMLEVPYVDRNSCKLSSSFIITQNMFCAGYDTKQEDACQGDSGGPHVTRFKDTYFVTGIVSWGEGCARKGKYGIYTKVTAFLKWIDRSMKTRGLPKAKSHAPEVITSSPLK
Chain of Plasminogen (P00747 97-580 limits assumed): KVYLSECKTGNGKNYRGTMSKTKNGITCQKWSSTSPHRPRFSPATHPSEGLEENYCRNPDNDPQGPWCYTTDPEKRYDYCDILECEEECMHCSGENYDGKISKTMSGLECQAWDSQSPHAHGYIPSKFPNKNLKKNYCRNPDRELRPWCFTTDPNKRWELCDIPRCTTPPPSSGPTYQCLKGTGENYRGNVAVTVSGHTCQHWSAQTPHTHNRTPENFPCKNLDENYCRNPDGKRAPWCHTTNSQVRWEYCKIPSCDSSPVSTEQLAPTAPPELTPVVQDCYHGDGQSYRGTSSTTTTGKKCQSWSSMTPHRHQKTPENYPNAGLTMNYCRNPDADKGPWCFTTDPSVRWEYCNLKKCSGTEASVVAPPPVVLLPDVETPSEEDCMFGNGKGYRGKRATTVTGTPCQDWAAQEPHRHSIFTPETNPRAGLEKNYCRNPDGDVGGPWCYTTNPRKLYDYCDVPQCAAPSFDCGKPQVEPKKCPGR
Chain of Plasminogen (P00747 581-810 limits assumed): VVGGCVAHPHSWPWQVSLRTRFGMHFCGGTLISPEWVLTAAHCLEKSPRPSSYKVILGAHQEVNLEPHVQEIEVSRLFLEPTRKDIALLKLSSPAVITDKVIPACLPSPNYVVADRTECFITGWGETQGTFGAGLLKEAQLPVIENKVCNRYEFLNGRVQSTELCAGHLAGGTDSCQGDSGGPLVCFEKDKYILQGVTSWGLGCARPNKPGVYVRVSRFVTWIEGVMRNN
Chain of Tissue-type plasminogen activator (P00750 whole entry): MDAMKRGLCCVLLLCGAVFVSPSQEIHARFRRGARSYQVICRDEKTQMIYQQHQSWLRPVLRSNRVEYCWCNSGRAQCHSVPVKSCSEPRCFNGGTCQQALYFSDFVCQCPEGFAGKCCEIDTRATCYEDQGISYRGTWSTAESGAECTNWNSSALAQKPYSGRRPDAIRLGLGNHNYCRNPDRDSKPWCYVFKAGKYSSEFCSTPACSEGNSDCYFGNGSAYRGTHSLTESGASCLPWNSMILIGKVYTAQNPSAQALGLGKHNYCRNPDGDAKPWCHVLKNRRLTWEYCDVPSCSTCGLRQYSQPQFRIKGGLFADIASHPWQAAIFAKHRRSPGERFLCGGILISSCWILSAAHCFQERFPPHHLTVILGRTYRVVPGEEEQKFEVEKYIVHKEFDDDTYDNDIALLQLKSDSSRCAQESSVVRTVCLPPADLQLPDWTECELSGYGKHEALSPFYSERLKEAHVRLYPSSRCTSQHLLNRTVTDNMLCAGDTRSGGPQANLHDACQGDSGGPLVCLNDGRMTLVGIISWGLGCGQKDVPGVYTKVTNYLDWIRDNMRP

SMILES: NCc1cccc(-n2ccc(C(F)(F)F)n2)c1
- pIC50 (Plasma kallikrein [1]): 3.00

SMILES: N#Cc1cccc([C@@H](NCC2CC2)c2ccc(F)c(NC(=O)c3cc(C(F)(F)F)nn3-c3cccc(CN)c3)c2)c1 (stereo in doubt) [BEROTRALSTAT]
- AUC(0-t) at 96 h [2]: 6.18 µg·h/mL
- Cmax [3]: 0.773 µg/mL
- CL/F [4]: 4.38 L/h/kg
- bioavailability [5]: 33%
- AUC(0-t) at 24 h [6]: 0.974 µg·h/mL
- clearance [7]: 1.62 L/h/kg
- pIC50 (Prothrombin): < 4.30
- pIC50 (Coagulation factor X): < 4.30
- IC50 (Trypsin): 11 µM
- Tmax [8]: 2 h
- AUC(0-t) at 24 h [9]: 4.15 µg·h/mL
- AUC(0-t) at 24 h [10]: 1.62 µg·h/mL
- AUC(0-t) at 24 h [11]: 4.78 µg·h/mL
- Cmax [12]: 0.242 µg/mL
- pIC50 (Plasminogen): 5.40
- half-life [13]: 22.7 h
- Tmax [14]: 4.7 h
- half-life [15]: 18.3 h
- half-life [16]: 10.1 h
- solubility [17]: 0.12 mg/mL (≈ 213 µM)
- solubility [18]: 0.16 mg/mL (≈ 284 µM)
- Cmax [19]: 0.475 µg/mL
- CL/F [20]: 4.86 L/h/kg
- Cmax [21]: 0.673 µg/mL
- half-life [22]: 18.5 h
- Cmax [23]: 0.342 µg/mL
- pIC50 [24]: < 4.30
- pIC50 [25]: < 4.30
- clearance [26]: 1.8 L/h/kg
- AUC at 24 h [27]: 2.21 µg·h/mL
- bioavailability [28]: 45%
- pIC50 (Coagulation factor XII): < 4.30
- AUC(0-t) at 96 h [29]: 1.86 µg·h/mL

SMILES: NCc1cccc(-n2nc(C(F)(F)F)cc2C(=O)Nc2cc(C(NCC3CC3)c3ccncc3)ccc2F)c1 (stereo unspecified)
- AUC at 12 h [30]: 0.073 µg·h/mL
- pIC50 (Plasma kallikrein [1]): 8.28
- Cmax [31]: 0.022 µg/mL
- pIC50 (Plasma kallikrein [32]): 7.78

SMILES: NCc1cccc(-n2nc(C(F)(F)F)cc2C(=O)Nc2cc(C(NCC3CC3)c3cccnc3)ccc2F)c1 (stereo unspecified)
- AUC at 12 h [30]: 0.128 µg·h/mL
- pIC50 (Plasma kallikrein [1]): 8.00
- Cmax [31]: 0.058 µg/mL
- pIC50 (Plasma kallikrein [32]): 8.00

SMILES: NCc1cccc(-n2nc(C(F)(F)F)cc2C(=O)Nc2ccccc2F)c1
- pIC50 (Plasma kallikrein [1]): 4.56

SMILES: COC(c1ccccc1)c1ccc(F)c(NC(=O)c2cc(C(F)(F)F)nn2-c2cccc(CN)c2)c1 (stereo unspecified)
- pIC50 (Plasma kallikrein [1]): 6.64

SMILES: NCc1cccc(-n2nc(C(F)(F)F)cc2C(=O)Nc2ccc(-c3ccccc3)cc2F)c1
- pIC50 (Plasma kallikrein [1]): 5.99

SMILES: NCc1cccc(-n2nc(C(F)(F)F)cc2C(=O)Nc2cccc(C(OCC3CC3)c3ccccc3)c2F)c1 (stereo unspecified)
- pIC50 (Plasma kallikrein [1]): 7.43
- pIC50 (Plasma kallikrein [32]): < 6.00

SMILES: CCOC(c1ccccc1)c1ccc(F)c(NC(=O)c2cc(C(F)(F)F)nn2-c2cccc(CN)c2)c1 (stereo unspecified)
- pIC50 (Plasma kallikrein [1]): 6.87
- pIC50 (Plasma kallikrein [32]): 5.89

SMILES: NCc1cccc(-n2nc(C(F)(F)F)cc2C(=O)Nc2ccc(C(O)c3ccccc3)cc2F)c1 (stereo unspecified)
- pIC50 (Plasma kallikrein [1]): 6.00

SMILES: NCc1cccc(-n2nc(C(F)(F)F)cc2C(=O)Nc2ccc(C(OCC3CC3)c3ccccc3)cc2F)c1 (stereo unspecified)
- pIC50 (Plasma kallikrein [1]): 6.19

SMILES: NCc1cccc(-n2nc(C(F)(F)F)cc2C(=O)Nc2cc(C(NCC3CC3)c3ccccc3)ccc2F)c1 (stereo in doubt; 25)
- AUC at 12 h [30]: 0.493 µg·h/mL
- AUC at 24 h [33]: 0.852 µg·h/mL
- concentration at 24 h [34]: 0.029 µg/mL
- Cmax [31]: 0.051 µg/mL
- concentration at 12 h [35]: 0.031 µg/mL

SMILES: NCc1cccc(-n2nc(C(F)(F)F)cc2C(=O)O)c1
- pIC50 (Plasma kallikrein [1]): 4.81

SMILES: NCc1cccc(-n2nc(C(F)(F)F)cc2C(=O)Nc2cc(F)cc(C(OCC3CC3)c3ccccc3)c2)c1 (stereo unspecified)
- pIC50 (Plasma kallikrein [1]): 7.00
- pIC50 (Plasma kallikrein [32]): < 6.00

SMILES: NCc1cccc(-n2nc(C(F)(F)F)cc2C(=O)Nc2ccc(F)c(C(OCC3CC3)c3ccccc3)c2)c1 (stereo unspecified)
- pIC50 (Plasma kallikrein [1]): 6.15
- pIC50 (Plasma kallikrein [32]): < 6.00
